Measurements: ChEMBL document CHEMBL1201862, “PubChem BioAssay data set” (2004)
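Grown in 96-well plates, cells were treated for 48 hours with each compound at five concentrations. Insufficient inhibition: endpoint recorded as highest concentration tested. GI50 is the concentration that inhibits growth by half.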 Activity calls are given as the source filed them. Cut-off read from the data, not from the text of the source: active = GI50 up to about 1.1 µM and inactive = higher.

What was measured:
Experiment in all cases: DTP human tumour cell line panel, 48 h
UACC-62 = test system: UACC-62
SNB-19 = test system: SNB-19
HT-29 = test system: HT-29
HCT-15 = test system: HCT-15
A549 = test system: A549
HL-60 = test system: HL-60
CCRF-CEM = test system: CCRF-CEM
SN12C = test system: SN12C
OVCAR-5 = test system: OVCAR-5
SF-295 = test system: SF-295
UACC-257 = test system: UACC-257
OVCAR-3 = test system: OVCAR-3
Malme-3M = test system: Malme-3M
IGROV-1 = test system: IGROV-1
NCI/ADR-RES = test system: NCI/ADR-RES
OVCAR-4 = test system: OVCAR-4
SK-MEL-28 = test system: SK-MEL-28
BT-549 = test system: BT-549
T47D = test system: T47D
SK-OV-3 = test system: SK-OV-3
COLO 205 = test system: COLO 205
HOP-62 = test system: HOP-62
EKVX = test system: EKVX
OVCAR-8 = test system: OVCAR-8
PC-3 = test system: PC-3
HCT-116 = test system: HCT-116
TK-10 = test system: TK-10
MDA-MB-231 = test system: MDA-MB-231
SW-620 = test system: SW-620
SF-268 = test system: SF-268
RXF 393 = test system: RXF 393
MOLT-4 = test system: MOLT-4
HOP-92 = test system: HOP-92
SK-MEL-2 = test system: SK-MEL-2
CAKI-1 = test system: CAKI-1
SR = test system: SR
DU-145 = test system: DU-145
LOX IMVI = test system: LOX IMVI
MDA-MB-435 = test system: MDA-MB-435
SF-539 = test system: SF-539
NCI-H226 = test system: NCI-H226
U-251 = test system: U-251
A498 = test system: A498
ACHN = test system: ACHN
M14 = test system: M14
NCI-H522 = test system: NCI-H522
SK-MEL-5 = test system: SK-MEL-5
UO-31 = test system: UO-31
NCI-H23 = test system: NCI-H23
K562 = test system: K562
KM12 = test system: KM12
Hs-578T = test system: Hs-578T
786-0 = test system: 786-0
HCC 2998 = test system: HCC 2998
MCF7 = test system: MCF7
RPMI-8226 = test system: RPMI-8226
NCI-H460 = test system: NCI-H460
SNB-75 = test system: SNB-75
MDA-N = test system: MDA-N

NCCCCNC1(c2cc3ccccc3s2)CCCCC1
GI50 (UACC-62): 1.91 µM (inactive)
GI50 (SNB-19): 7.45 µM (inactive)
GI50 (HT-29): 2.42 µM (inactive)
GI50 (HCT-15): 4.54 µM
GI50 (A549): 5.96 µM (inactive)
GI50 (HL-60): 3.09 µM (inactive)
GI50 (CCRF-CEM): 1.69 µM (inactive)
GI50 (SN12C): 12.2 µM (inactive)
GI50 (OVCAR-5): 3.77 µM (inactive)
GI50 (SF-295): 2.84 µM (inactive)
GI50 (UACC-257): 1.84 µM (inactive)
GI50 (OVCAR-3): 2.78 µM (inactive)
GI50 (Malme-3M): 1.88 µM (inactive)
GI50 (IGROV-1): 3.08 µM (inactive)
GI50 (NCI/ADR-RES): 6.9 µM (inactive)
GI50 (OVCAR-4): 6.76 µM (inactive)
GI50 (SK-MEL-28): 1.83 µM (inactive)
GI50 (BT-549): 11.8 µM (inactive)
GI50 (T47D): 2.29 µM (inactive)
GI50 (SK-OV-3): 14.5 µM (inactive)
GI50 (COLO 205): 1.74 µM (inactive)
GI50 (HOP-62): 6.03 µM (inactive)
GI50 (EKVX): 14.6 µM (inactive)
GI50 (OVCAR-8): 7.06 µM (inactive)
GI50 (PC-3): 4.9 µM (inactive)
GI50 (HCT-116): 3.65 µM (inactive)
GI50 (TK-10): 3.87 µM (inactive)
GI50 (MDA-MB-231): 3.22 µM (inactive)
GI50 (SW-620): 3.54 µM (inactive)
GI50 (SF-268): 6.24 µM (inactive)
GI50 (RXF 393): 3.07 µM (inactive)
GI50 (MOLT-4): 2.07 µM (inactive)
GI50 (HOP-92): 5.32 µM (inactive)
GI50 (SK-MEL-2): 1.88 µM (inactive)
GI50 (CAKI-1): 14.8 µM (inactive)
GI50 (SR): 1.49 µM (inactive)
GI50 (DU-145): 11.1 µM (inactive)
GI50 (LOX IMVI): 1.71 µM (inactive)
GI50 (MDA-MB-435): 1.82 µM (inactive)
GI50 (SF-539): 1.95 µM (inactive)
GI50 (NCI-H226): 16.5 µM (inactive)
GI50 (U-251): 2.34 µM (inactive)
GI50 (A498): 2.16 µM (inactive)
GI50 (ACHN): 11.1 µM (inactive)
GI50 (M14): 1.98 µM (inactive)
GI50 (NCI-H522): 2.42 µM (inactive)
GI50 (SK-MEL-5): 1.74 µM (inactive)
GI50 (UO-31): 2.56 µM (inactive)
GI50 (NCI-H23): 14.2 µM (inactive)
GI50 (K562): 1.59 µM (inactive)
GI50 (KM12): 3.2 µM (inactive)
GI50 (Hs-578T): 4.51 µM (inactive)
GI50 (786-0): 1.55 µM (inactive)
GI50 (HCC 2998): 1.65 µM (inactive)
GI50 (MCF7): 2.88 µM (inactive)
GI50 (RPMI-8226): 1.84 µM (inactive)
GI50 (NCI-H460): 2.62 µM (inactive)
GI50 (SNB-75): 3.27 µM (inactive)
GI50 (MDA-N): 1.71 µM (inactive)

S=C(Nc1cccc(C2(N3CCCCC3)CCCCC2)c1)Nc1cccc(C2(N3CCCCC3)CCCCC2)c1
GI50 (UACC-62): 18.9 µM (inactive)
GI50 (SNB-19): 36.6 µM (inactive)
GI50 (HT-29): 19.4 µM (inactive)
GI50 (HCT-15): 32.2 µM
GI50 (A549): 31.6 µM (inactive)
GI50 (HL-60): 14.9 µM (inactive)
GI50 (CCRF-CEM): 13.6 µM (inactive)
GI50 (SN12C): 31.6 µM (inactive)
GI50 (OVCAR-5): 66.4 µM (inactive)
GI50 (SF-295): 37.8 µM (inactive)
GI50 (UACC-257): 18 µM (inactive)
GI50 (OVCAR-3): 21.8 µM (inactive)
GI50 (Malme-3M): 20.7 µM (inactive)
GI50 (IGROV-1): 54.5 µM (inactive)
GI50 (NCI/ADR-RES): > 100 µM (inactive)
GI50 (OVCAR-4): 35.6 µM (inactive)
GI50 (SK-MEL-28): 17.9 µM (inactive)
GI50 (BT-549): 41.1 µM (inactive)
GI50 (T47D): 19.5 µM (inactive)
GI50 (SK-OV-3): > 100 µM (inactive)
GI50 (COLO 205): 17.1 µM (inactive)
GI50 (HOP-62): 39.2 µM (inactive)
GI50 (EKVX): 38 µM (inactive)
GI50 (OVCAR-8): 24.3 µM (inactive)
GI50 (PC-3): 26.9 µM (inactive)
GI50 (HCT-116): 20.8 µM (inactive)
GI50 (TK-10): 2.69 µM (inactive)
GI50 (MDA-MB-231): 15.6 µM (inactive)
GI50 (SW-620): 37.8 µM (inactive)
GI50 (SF-268): 36.8 µM (inactive)
GI50 (RXF 393): 13.6 µM (inactive)
GI50 (MOLT-4): 13.5 µM (inactive)
GI50 (HOP-92): 10.3 µM (inactive)
GI50 (SK-MEL-2): 18.4 µM (inactive)
GI50 (CAKI-1): 42 µM (inactive)
GI50 (SR): 13.6 µM (inactive)
GI50 (DU-145): 27.3 µM (inactive)
GI50 (LOX IMVI): 12.7 µM (inactive)
GI50 (MDA-MB-435): 16 µM (inactive)
GI50 (SF-539): 15.3 µM (inactive)
GI50 (NCI-H226): 27.2 µM (inactive)
GI50 (U-251): 23.4 µM (inactive)
GI50 (A498): 18.9 µM (inactive)
GI50 (ACHN): 23.9 µM (inactive)
GI50 (M14): 18.7 µM (inactive)
GI50 (NCI-H522): 20.4 µM (inactive)
GI50 (SK-MEL-5): 17.7 µM (inactive)
GI50 (UO-31): 16.9 µM (inactive)
GI50 (NCI-H23): > 100 µM (inactive)
GI50 (K562): 11.2 µM (inactive)
GI50 (KM12): 16 µM (inactive)
GI50 (Hs-578T): 38.9 µM (inactive)
GI50 (786-0): 15.2 µM (inactive)
GI50 (HCC 2998): 2.43 µM (inactive)
GI50 (MCF7): 31.3 µM (inactive)
GI50 (RPMI-8226): 10.6 µM (inactive)
GI50 (NCI-H460): 18.7 µM (inactive)
GI50 (SNB-75): 12.9 µM (inactive)
GI50 (MDA-N): 17.6 µM (inactive)
